# Data taken from patent US20230085307A1, “PYRIDAZINONE COMPOUND AND HERBICIDE” (NISSAN CHEMICAL CORPORATION, priority 2019, published 2023).
# Experiments:
# green foxtail [1] = assay: Test Example 5: herbicidal effect by foliage application, plastic box (Table 20, symbol G); type: in vivo, green foxtail (Setaria viridis); details: foliage application, AAH 320 g/ha, three weeks after application
# In short: (§1)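 Foliar spray test: emulsion formulation diluted in water to a set application rate, sprayed onto 14-day-old plants raised in diluvial soil at 25° C to 30° C under glass. Both herbicidal effect and crop effect rated visually three weeks later.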
# blackgrass [2] = assay: Test Example 4: herbicidal effect by soil treatment (Table 19, symbol J); type: in vivo, blackgrass (Alopecurus myosuroides); details: AAH 320 g/ha
# In short: (§2)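 Step 1: sow seeds in sterilized diluvial soil, cover ~1.5 cm. Step 2: spray diluted emulsion onto soil surface at predetermined rate. Step 3: greenhouse, 25–30° C, three weeks. Step 4: grade effect on each plant by earlier criteria.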
# southern crabgrass [3] = assay: Test Example 4: herbicidal effect by soil treatment (Table 19, symbol F); type: in vivo, southern crabgrass (Digitaria ciliaris); details: AAH 320 g/ha
# In short: as §2
# persian speedwell [4] = assay: Test Example 5: herbicidal effect by foliage application, plastic box (Table 20, symbol R); type: in vivo, Persian speedwell (Veronica persica); details: foliage application, AAH 320 g/ha, three weeks after application
# In short: as §1
# wild oat [5] = assay: Test Example 5: herbicidal effect by foliage application, plastic box (Table 20, symbol I); type: in vivo, wild oat (Avena fatua); details: foliage application, AAH 320 g/ha, three weeks after application
# In short: as §1
# persian speedwell [6] = assay: Test Example 4: herbicidal effect by soil treatment (Table 19, symbol R); type: in vivo, Persian speedwell (Veronica persica); details: AAH 320 g/ha
# Excerpt: (§3) [Test Example 4] Herbicidal Effect Test by Soil Treatment
# (§4) Sterilized diluvial soil was placed in a plastic box having a length of 21 cm, a width of 13 cm, and a depth of 7 cm. The seeds of each of southern crabgrass, green foxtail, barnyard grass, wild oat, blackgrass, Italian ryegrass, windgrass, velvetleaf, redroot pigweed, lambsquarters, chickweed, false cleavers, persian speedwell, corn, soybean, rice, wheat, beet, and rapeseed were sowed in a spot-like manner and covered with the soil having a thickness of about 1.5 cm. Subsequently, the emulsion agent of the compound of the present invention prepared according to Formulation Example 2 was diluted with water so as to achieve a predetermined herbicide amount, and the diluted emulsion agent was uniformly applied to the surface of the soil with a small-sized spray. The plastic box was placed in a greenhouse at 25° C. to 30° C. for growth of the plants. Three weeks after the herbicide application, the effect of the herbicide on each plant was evaluated according to the criteria of Test Example 1.
# wild oat [7] = assay: Test Example 4: herbicidal effect by soil treatment (Table 19, symbol I); type: in vivo, wild oat (Avena fatua); details: AAH 320 g/ha
# Excerpt: as §3, §4
# windgrass = assay: Test Example 5: herbicidal effect by foliage application, plastic box (Table 20, symbol L); type: in vivo, windgrass (Apera spica-venti); details: foliage application, AAH 320 g/ha, three weeks after application
# In short: as §1
# lambsquarters [8] = assay: Test Example 5: herbicidal effect by foliage application, plastic box (Table 20, symbol O); type: in vivo, lambsquarters (Chenopodium album); details: foliage application, AAH 320 g/ha, three weeks after application
# In short: as §1
# lambsquarters [9] = assay: Test Example 4: herbicidal effect by soil treatment (Table 19, symbol O); type: in vivo, lambsquarters (Chenopodium album); details: AAH 320 g/ha
# In short: as §2
# chickweed [10] = assay: Test Example 5: herbicidal effect by foliage application, plastic box (Table 20, symbol P); type: in vivo, common chickweed (Stellaria media); details: foliage application, AAH 320 g/ha, three weeks after application
# In short: as §1
# Italian ryegrass [11] = assay: Test Example 5: herbicidal effect by foliage application, plastic box (Table 20, symbol K); type: in vivo, Italian ryegrass (Lolium multiflorum); details: foliage application, AAH 320 g/ha, three weeks after application
# In short: as §1
# Chinese sprangletop = assay: Test Example 3: herbicidal effect by foliage application, Wagner pot (Table 18, symbol D); type: in vivo, chinese sprangletop (Leptochloa chinensis); details: 320 g/ha
# In short: (§5)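 Plants were sown in alluvial soil held under 0.1–0.5 cm standing water and grown 14 days in a greenhouse at 25–30 °C. An emulsifiable formulation, water-diluted to the set dose, was then sprayed onto the foliage, and effects were scored three weeks later using previously defined criteria.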
# rice flat sedge = assay: Test Example 3: herbicidal effect by foliage application, Wagner pot (Table 18, symbol E); type: in vivo, rice flat sedge (Cyperus iria); details: 320 g/ha
# In short: as §5
# southern crabgrass [12] = assay: Test Example 5: herbicidal effect by foliage application, plastic box (Table 20, symbol F); type: in vivo, southern crabgrass (Digitaria ciliaris); details: foliage application, AAH 320 g/ha, three weeks after application
# In short: as §1
# redroot pigweed [13] = assay: Test Example 4: herbicidal effect by soil treatment (Table 19, symbol N); type: in vivo, redroot pigweed (Amaranthus retroflexus); details: AAH 320 g/ha
# In short: as §2
# barnyard grass [14] = assay: Test Example 4: herbicidal effect by soil treatment (Table 19, symbol H); type: in vivo, barnyard grass (Echinochloa crus-galli); details: AAH 320 g/ha
# In short: as §2
# green foxtail [15] = assay: Test Example 4: herbicidal effect by soil treatment (Table 19, symbol G); type: in vivo, green foxtail (Setaria viridis); details: AAH 320 g/ha
# In short: as §2
# barnyard grass [16] = assay: Test Example 3: herbicidal effect by foliage application, Wagner pot (Table 18, symbol H); type: in vivo, barnyard grass (Echinochloa crus-galli); details: 320 g/ha
# In short: as §5
# Italian ryegrass [17] = assay: Test Example 4: herbicidal effect by soil treatment (Table 19, symbol K); type: in vivo, Italian ryegrass (Lolium multiflorum); details: AAH 320 g/ha
# In short: as §2
# redroot pigweed [18] = assay: Test Example 5: herbicidal effect by foliage application, plastic box (Table 20, symbol N); type: in vivo, redroot pigweed (Amaranthus retroflexus); details: foliage application, AAH 320 g/ha, three weeks after application
# In short: as §1
# chickweed [19] = assay: Test Example 4: herbicidal effect by soil treatment (Table 19, symbol P); type: in vivo, common chickweed (Stellaria media); details: AAH 320 g/ha
# Excerpt: as §3, §4
# blackgrass [20] = assay: Test Example 5: herbicidal effect by foliage application, plastic box (Table 20, symbol J); type: in vivo, blackgrass (Alopecurus myosuroides); details: foliage application, AAH 320 g/ha, three weeks after application
# In short: as §1
# velvetleaf [21] = assay: Test Example 5: herbicidal effect by foliage application, plastic box (Table 20, symbol M); type: in vivo, velvetleaf (Abutilon theophrasti); details: foliage application, AAH 320 g/ha, three weeks after application
# In short: as §1
# velvetleaf [22] = assay: Test Example 4: herbicidal effect by soil treatment (Table 19, symbol M); type: in vivo, velvetleaf (Abutilon theophrasti); details: AAH 320 g/ha
# In short: as §2
# barnyard grass [23] = assay: Test Example 5: herbicidal effect by foliage application, plastic box (Table 20, symbol H); type: in vivo, barnyard grass (Echinochloa crus-galli); details: foliage application, AAH 320 g/ha, three weeks after application
# In short: as §1
smiles,measurement,setting,value
COc1ccc(Cl)cc1-c1sc2ccccc2c1-c1c(O)c(OC)nn(C)c1=O [1-178],"G: green foxtail, herbicidal effect",green foxtail [1],4 (Herbicidal rate of 70% or more and less than 90%)
same,"J: blackgrass, herbicidal effect rating",blackgrass [2],1 (Herbicidal rate of 5% or more and less than 20%)
same,"F: southern crabgrass, herbicidal effect rating",southern crabgrass [3],0 (Herbicidal rate of 5% or less (almost no effect))
same,"R: persian speedwell, herbicidal effect",persian speedwell [4],4 (Herbicidal rate of 70% or more and less than 90%)
same,"I: wild oat, herbicidal effect",wild oat [5],4 (Herbicidal rate of 70% or more and less than 90%)
same,"R: persian speedwell, herbicidal effect rating",persian speedwell [6],4 (Herbicidal rate of 70% or more and less than 90%)
same,"I: wild oat, herbicidal effect rating",wild oat [7],0 (Herbicidal rate of 5% or less (almost no effect))
same,"L: windgrass, herbicidal effect",windgrass,4 (Herbicidal rate of 70% or more and less than 90%)
same,"O: lambsquarters, herbicidal effect",lambsquarters [8],4 (Herbicidal rate of 70% or more and less than 90%)
same,"O: lambsquarters, herbicidal effect rating",lambsquarters [9],0 (Herbicidal rate of 5% or less (almost no effect))
same,"P: chickweed, herbicidal effect",chickweed [10],5 (Herbicidal rate of 90% or more (almost completely withered))
same,"K: Italian ryegrass, herbicidal effect",Italian ryegrass [11],0 (Herbicidal rate of 5% or less (almost no effect))
same,"herbicidal effect on D (Chinese sprangletop), rating 0-5",Chinese sprangletop,0 (Herbicidal rate of 5% or less (almost no effect))
same,"herbicidal effect on E (rice flat sedge), rating 0-5",rice flat sedge,5 (Herbicidal rate of 90% or more (almost completely withered))
same,"F: southern crabgrass, herbicidal effect",southern crabgrass [12],3 (Herbicidal rate of 40% or more and less than 70%)
same,"N: redroot pigweed, herbicidal effect rating",redroot pigweed [13],4 (Herbicidal rate of 70% or more and less than 90%)
same,"H: barnyard grass, herbicidal effect rating",barnyard grass [14],0 (Herbicidal rate of 5% or less (almost no effect))
same,"G: green foxtail, herbicidal effect rating",green foxtail [15],0 (Herbicidal rate of 5% or less (almost no effect))
same,"herbicidal effect on H (barnyard grass), rating 0-5",barnyard grass [16],4 (Herbicidal rate of 70% or more and less than 90%)
same,"K: Italian ryegrass, herbicidal effect rating",Italian ryegrass [17],0 (Herbicidal rate of 5% or less (almost no effect))
same,"N: redroot pigweed, herbicidal effect",redroot pigweed [18],5 (Herbicidal rate of 90% or more (almost completely withered))
same,"P: chickweed, herbicidal effect rating",chickweed [19],4 (Herbicidal rate of 70% or more and less than 90%)
same,"J: blackgrass, herbicidal effect",blackgrass [20],1 (Herbicidal rate of 5% or more and less than 20%)
same,"M: velvetleaf, herbicidal effect",velvetleaf [21],3 (Herbicidal rate of 40% or more and less than 70%)
same,"M: velvetleaf, herbicidal effect rating",velvetleaf [22],0 (Herbicidal rate of 5% or less (almost no effect))
same,"H: barnyard grass, herbicidal effect",barnyard grass [23],4 (Herbicidal rate of 70% or more and less than 90%)
